Results reported in patent US20110123530A1, “COMPOSITIONS AND METHODS FOR TREATING AND DIAGNOSING ASTHMA” (priority 2008, published 2011).

Columns and labels:
serum YKL-40 = experiment: Serum YKL-40 immunoassay; type: in vivo, human; conditions: asthmatics on inhaled corticosteroids (N = 51) vs No ICS (N = 49)
Excerpt: To determine whether elevated levels of soluble periostin and CEA proteins were detectable in peripheral blood, we examined periostin and CEA in sera from 100 asthmatics and 48 healthy controls using immunoassays. In addition, we measured IgE and YKL-40, a serum marker previously described to be elevated in some asthmatics, in these same sera. […] However, in all cases, there was substantial overlap in serum levels of each biomarker between groups. As shown in Example 8, inhaled corticosteroid (ICS) treatment reduces the bronchial epithelial expression of periostin in asthmatics that have elevated periostin at baseline (see also [8]). Of the 100 asthmatics whose serum we examined, 51 were taking inhaled corticosteroids (ICS) and 49 were not. […] Nevertheless, asthmatics on ICS had higher median serum levels of IgE, periostin, and CEA than healthy controls (Table 13). As shown in FIG. 4 and Table 10, 21/23 asthmatics positive for the bronchial epithelial IL-13 signature (“IL-13 high”) had serum IgE levels greater than 100 IU/ml, although a proportion of “IL-13 low” asthmatics also had elevated IgE. […] As airway expression levels of periostin and CEACAM5 were highly correlated in “IL-13 high” asthmatics, we examined the correlation between serum periostin and CEA across all asthmatics (FIG. 13L).

[1] = test system: IL-4/13 signature genes in bronchial airway epithelium; experiment: Microarray analysis of bronchial epithelial brushings at baseline and after one week of ICS treatment; type: in vivo, human
Excerpt: (A) Periostin expression; (B) PRR4 expression; (C) RUNX2 expression.
We studied biological samples stored in the Airway Tissue Bank at the University of California, San Francisco (UCSF) that had been collected during bronchoscopy performed for research purposes in healthy and asthmatic volunteers. Research bronchoscopy had included collection of epithelial brushings, bronchoalveolar lavage (BAL) and bronchial biopsies using specific methods previously described. BAL cell counts and differentials had been performed and databased, and macrophages had been sorted from BAL fluid using flow cytometry. Four to six bronchial biopsies had been obtained from 2nd-through 5th-order carinae (contralateral to the brushing site), formalin-fixed, and then paraffin-embedded in isotropic uniform random orientation to enable quantitative measures of inflammation and remodeling using methods of design-based stereology. An additional 2 bronchial biopsies had been homogenized and processed for RNA using the Qiagen RNeasy minikit (Qiagen Inc., Valencia, Calif.). RNA extracted from epithelial brushings, homogenates of bronchial biopsies, and lavage macrophages had been quality assured and aliquoted for future microrray- and PCR-based gene profiling. All research bronchoscopy studies had been approved by the UCSF Committee on Human Research (CHR), written informed consent had been obtained from all subjects, and all studies had been performed in accordance with the principles expressed in the Declaration of Helsinki The Airway Tissue Bank procedures were also reviewed and approved by UCSF's CHR. Samples of epithelial brushings and macrophages from this tissue bank have been used in previously reported studies. Most recently, microarray analyses of differentially expressed genes in epithelial brushings in asthmatic subjects have been reported by us.
Thirty-two of the subjects with asthma had also been enrolled in a double-blind randomized controlled clinical trial of inhaled fluticasone (500 μg, twice daily, N=19) or matched placebo (N=13) (ClinicalTrials.gov Identifier: NCT00187499). The trial was designed to determine the effects of inhaled steroid (fluticasone) on airway gene expression and to relate gene expression changes to improvements in lung function. The asthma subjects in the clinical trial had undergone baseline bronchoscopy and had been randomized to receive study medication before undergoing repeat bronchoscopy one week later after starting study drug. Asthma subjects continued study medication for a total of 8 weeks. Healthy control subjects and smokers were enrolled in one of three cross-sectional studies, which comprised two visits each, the first for characterization and the second for bronchoscopy 1 week later. Thirty-five subjects had adequate baseline bronchoscopy, and 32 had RNA available from epithelial brushings at both bronchoscopies. Lung function was measured (by spirometry) after 4 weeks and 8 weeks on study medication, and a final spirometry was completed after a one week run-out. […]
Microarray data from mild-moderate non-smoking asthma patients and healthy non-smoking subjects were obtained from a previous study as described. […] Microarray data was analysed in the present study to determine whether genes were differentially regulated within the asthmatic group. Also, the microarray data was analyzed to determine whether other genes were co-regulated with top asthma-related, IL-13 induced genes. […]

[2] = 19 subjects, one week of ICS treatment, vast majority of genes
[3] = individual subjects after one week of ICS treatment

CCC(=O)O[C@]1(C(=O)SCF)[C@H](C)C[C@H]2[C@@H]3C[C@H](F)C4=CC(=O)C=C[C@]4(C)[C@@]3(F)[C@@H](O)C[C@@]21C [fluticasone, fluticasone propionate]
YKL-49, level of serum biomarker, median (range) (serum YKL-40): 72 (24-494) ng/ml | Expression of IL-4/13 signature genes (Table 2) in asthmatic bronchial airway epithelium [1, 2]: significantly downregulated | Expression of IL-13 signature genes (Table 9) in asthmatic bronchial airway epithelium [1, 2]: significantly downregulated | PRR4 expression in bronchial epithelial brushings [1, 3]: not substantially downregulated | RUNX2 expression in bronchial epithelial brushings [1, 3]: not substantially downregulated | Hierarchical clustering by periostin, CLCA1 and serpinB2 expression in bronchial epithelium ([1]; subjects with IL-13 high asthma at baseline, after one week of fluticasone treatment): clustered with subjects who were IL-13 low at baseline
